In patent US11613558B2, “Peptides and pharmaceutical compositions for treating eye diseases” (Yuyu Pharma, Inc., priority 2018, dated 2023):
Where a name gives a salt, the structure may show the parent alone. Numbered stars: 1 amine (or outer) side, 2 acyl side, 3 side chain; on linkers, the order of the positions; unused ones are H or OH. Square brackets hold non-standard residues; d marks the D form. Peptide text beside a SMILES is read from it. ξ: configuration not given here. X2 = C[C@@H]1CC[C@@H](C(=O)[*:2])N1[*:1]; d(cisHyp) = O=C(O)[C@H]1C[C@@H](O)CN1; cisHyp = O=C(O)[C@@H]1C[C@H](O)CN1; X1 = O=C([C@H](CCCCO)N[*:1])[*:2]; Hyp = O=C(O)[C@@H]1C[C@@H](O)CN1; dHyp = O=C(O)[C@H]1C[C@H](O)CN1; Thr(3ξ) = CC(O)[C@H](N)C(=O)O; pGlu = O=C1CC[C@@H](C(=O)O)N1

What was measured:
[1] = test system: human primary corneal epithelial cells; assay: Cell growth rate of human primary corneal epithelial cells (CellTiter-Glo); type: cell-based; details: 48 hours and 72 hours
Experimental: In order to confirm whether the YDE derivatives could recover corneal damage, the cellular growth rate of human primary corneal epithelial cells was checked.
Specifically, primary corneal epithelial cells (ATCC, ATCC PCS-700-010) were seeded on a 96-well culture plate (Perkin Elmer, 6005680) containing the Corneal Epithelial Cell Basal Medium (ATCC, ATCC PCS-700-030) in the Corneal Epithelial Cell Growth Kit (ATCC, ATCC PCS-700-040) in an amount of 5×10^3 cells per well, which was then cultured for 24 hours under the conditions of 37° C. and 5% CO2.
YDE-001 to YDE-075 were each dissolved in 100% DMSO (Sigma, D2660) to a concentration of 10 mM, which was then diluted with 100% DMSO to a concentration of the compound of 6, 1.9, 0.6, 0.2, 0.06, 0.02, 0.006, and 0.002 mM. 20 μl of the diluted YDE derivative was added to a 96-well microplate (Greiner Bio-One, 651201) containing 380 μl of the Corneal Epithelial Cell Basal Medium such that the concentration of DMSO was diluted to 5%.
After 24 hours, 20 μl of each of the YDE derivatives diluted in the 96-well microplate was added to the 96-well culture plate containing the cells. As a control group, hEGF (Sigma, E9644) was treated at the same concentration as the YDE derivatives. The cells treated with the YDE-derivatives or hEGF were cultured for 48 hours and 72 hours under the conditions of 37° C. and 5% CO2 (FIGS. 18 to 25).
The cultured cells were treated with the CellTiter-Glo luminescent reagent (Promega, G7573) according to the manufacturer's instructions and reacted for 30 minutes at room temperature. Thereafter, the fluorescent signal (or luminescence signal) was checked using an Envision 2014 Multi-label plate reader. The measured values were normalized using a vehicle control (100% proliferation cell).

[2] = test system: rats with dry eye syndrome (extraorbital lacrimal gland excision, ELGE); assay: Amount of tear secretion (Schirmer test, cobalt chloride paper) in ELGE rats with dry eye syndrome; type: in vivo, rat; details: for Tear Volumes, Day 7 / Tear Volumes, Day 14: ELGE rats, 3 mg/ml, 5 μl/eye twice daily; for Tear Volumes, Day 7: day 7 of administration; for Tear Volumes, Day 14: day 14 of administration; for Change in amount of tear secretion as compared with the ELGE control group: 3% solution as printed, after administration for 14 days
How it was run: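 Dry eye induced in male Sprague-Dawley rats by extraorbital lacrimal gland excision; sham-operated controls. From 7 days post-surgery, 3 mg/ml test compounds in saline given topically at 5 μl/eye twice daily for 14 days. Tear secretion measured on days 7 and 14 as wetted length of cobalt chloride paper held 60 s in the lateral canthus.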

[3] = test system: cornea of rats with dry eye syndrome (ELGE); assay: Corneal permeability of fluorescent dye (corneal damage) in ELGE rats with dry eye syndrome; type: in vivo, rat; details: 5 μl/eye twice daily, day 14
How it was run: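 Dry eye induced in male Sprague-Dawley rats by extraorbital lacrimal gland excision; from day 7, 3 mg/ml compound in saline given at 5 μl/eye twice daily. After 14 doses, rats anaesthetized (Zolethyl 25 mg/kg ip), 1% fluorescein applied 1 h, and corneal staining read 12-24 h later by slit-lamp under blue light.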

[4] = Stability in aqueous solution under long-term storage conditions (related substances); type: physicochemical; details: 25° C., 75% RH
How it was run: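 Test substances dissolved in water at 1 mg/ml, sealed in glass vials and held at 25° C./75% RH. Related substances measured at 1, 2, 4, 8 and 12 weeks.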

[5] = Table 4, study of YDE-001 to YDE-028
[6] = Table 6, study of YDE-001 to YDE-028, 3 mg/ml
[7] = Table 5, study of YDE-029 to YDE-043
[8] = Table 7, study of YDE-029 to YDE-043, 3 mg/ml

For `CC(C)C[C@@H](NC(=O)CNC(=O)[C@@H](CC(C)C)NC(=O)[C@@H](CCC(N)=O)NC(=O)CNC(=O)[C@H]1C[C@@H](O)CN1)C(=O)N[C@H](C)C(=O)NCC(=O)N1CCC[C@@H]1C(=O)N[C@H](CCCCN)C(=O)O` [YDE-060] (H-[d(cisHyp)]G[dQ][dL]G[dL][dA]G[dP][dK]-OH), the “Cell proliferation rate (in words)” value [1] was “high cell proliferation rate”.

With `CC(C)C[C@H](NC(=O)CNC(=O)[C@H](CC(C)C)NC(=O)[C@H](CCC(N)=O)NC(=O)CNC(=O)[C@@H]1C[C@@H](O)CN1)C(=O)N[C@@H](C)C(=O)NCC(=O)N1CCC[C@H]1C(=O)N[C@@H](CCCCN)C(=O)O` [YDE-011, H-Hyp-Gly-Gln-Leu-Gly-Leu-Ala-Gly-Pro-Lys-OH AcOH salt] (H-[Hyp]GQLGLAGPK-OH) the “Tear Volumes, Day 7” value [2, 5] was 4.22 ± 1.45 mm^3, the “Tear Volumes, Day 14” value [2, 5] was 6.16 ± 2.16 mm^3 and the “Permeability of fluorescent dye” value [3, 6] was 18.11 ± 11.61%. The “Amount of related substances (after 12 weeks)” value (“Amount of related substances” below) [4] was 3.83% and the “Cell proliferation rate (in words)” value [1] was “high cell proliferation rate”.

With `CC(C)C[C@H](NC(=O)CNC(=O)[C@H](CC(C)C)NC(=O)[C@H](CCC(N)=O)NC(=O)CNC(=O)[C@H]1C[C@H](O)CN1)C(=O)N[C@@H](C)C(=O)NCC(=O)N1CCC[C@H]1C(=O)N[C@@H](CCCCN)C(=O)O` [YDE-057] (H-[dHyp]GQLGLAGPK-OH) the “Cell proliferation rate (in words)” value [1] was “high cell proliferation rate”.

In the case of `CC(C)C[C@H](NC(=O)CNC(=O)[C@H](CC(C)C)NC(=O)[C@H](CCC(N)=O)NC(=O)CNC(=O)[C@@H]1CC[C@@H](C)N1)C(=O)N[C@@H](C)C(=O)NCC(=O)N1CCC[C@H]1C(=O)N[C@@H](CCCCN)C(=O)O` [YDE-045] (H-[X2]GQLGLAGPK-OH), the “Cell proliferation rate (in words)” value [1] is reported as “high cell proliferation rate”.

For `CC(C)C[C@H](NC(=O)[C@H](CO)NC(=O)[C@H](CC(=O)O)NC(=O)[C@H](CCC(N)=O)NC(=O)CNC(=O)[C@@H]1C[C@@H](O)CN1)C(=O)N[C@@H](C)C(=O)NCC(=O)N1CCC[C@H]1C(=O)N[C@@H](CCCCN)C(=O)O` [YDE-023] (H-[Hyp]GQDSLAGPK-OH), the “Tear Volumes, Day 7” value [2, 5] was 5.32 ± 2.30 mm^3, the “Tear Volumes, Day 14” value [2, 5] was 5.78 ± 2.23 mm^3 and the “Permeability of fluorescent dye” value [3, 6] was 26.51 ± 8.18%. The “Amount of related substances” value [4] was 30.66%.

For `CC(C)C[C@H](NC(=O)[C@H](CC(C)C)NC(=O)[C@H](CC(=O)O)NC(=O)[C@H](CCC(N)=O)NC(=O)CNC(=O)[C@@H]1C[C@@H](O)CN1)C(=O)N[C@@H](C)C(=O)NCC(=O)N1CCC[C@H]1C(=O)N[C@@H](CCCCN)C(=O)O` [YDE-017] (H-[Hyp]GQDLLAGPK-OH), the “Tear Volumes, Day 7” value [2, 5] was 4.00 ± 1.22 mm^3, the “Tear Volumes, Day 14” value [2, 5] was 4.89 ± 1.50 mm^3 and the “Change in amount of tear secretion as compared with the ELGE control group” value (“Change in amount of tear secretion” below) ([2]; study of YDE-001 to YDE-028) was “did not show any significant changes”. For the same compound, the “Permeability of fluorescent dye” value [3, 6] was 39.76 ± 7.42% and the “Amount of related substances” value [4] was 11.88%.

In the case of `CC(C)C[C@H](NC(=O)CNC(=O)[C@H](Cc1cnc[nH]1)NC(=O)[C@H](CCC(N)=O)NC(=O)CNC(=O)[C@@H]1C[C@@H](O)CN1)C(=O)N[C@@H](C)C(=O)NCC(=O)N1CCC[C@H]1C(=O)N[C@@H](CCCCN)C(=O)O` [YDE-004] (H-[Hyp]GQHGLAGPK-OH), the “Tear Volumes, Day 7” value [2, 5] is reported as 3.42 ± 1.06 mm^3, the “Tear Volumes, Day 14” value [2, 5] is reported as 5.19 ± 1.84 mm^3 and the “Permeability of fluorescent dye” value [3, 6] is reported as 35.05 ± 11.74%. For the same compound, the “Amount of related substances” value [4] was 2.11%.

In the case of `CC(C)C[C@H](NC(=O)CNC(=O)[C@H](CC(C)C)NC(=O)[C@H](CCC(N)=O)NC(=O)CNC(=O)[C@@H]1C[C@@H](O)CN1)C(=O)N[C@@H](C)C(=O)NCC(=O)N1CCC[C@H]1C(=O)N[C@@H](CCCCO)C(=O)O` [YDE-033] (H-[Hyp]GQLGLAGP[X1]-OH), the “Tear Volumes, Day 7” value [2, 7] is reported as 4.99 ± 1.20 mm^3, the “Tear Volumes, Day 14” value [2, 7] is reported as 4.54 ± 1.16 mm^3 and the “Change in amount of tear secretion” value ([2]; study of YDE-029 to YDE-043) is reported as “did not show any significant changes”. For the same compound, the “Permeability of fluorescent dye” value [3, 8] was 60.55 ± 21.22% and the “Amount of related substances” value [4] was 5.6%.

In the case of `CC(C)C[C@H](NC(=O)[C@@H](NC(=O)[C@H](CC(=O)O)NC(=O)[C@H](CCC(N)=O)NC(=O)CNC(=O)[C@@H]1C[C@@H](O)CN1)C(C)O)C(=O)N[C@@H](C)C(=O)NCC(=O)N1CCC[C@H]1C(=O)N[C@@H](CCCCN)C(=O)O` (stereo partly drawn) [YDE-024] (H-[Hyp]GQD[Thr(3ξ)]LAGPK-OH), the “Tear Volumes, Day 7” value [2, 5] is reported as 3.85 ± 1.30 mm^3, the “Tear Volumes, Day 14” value [2, 5] is reported as 5.72 ± 1.36 mm^3 and the “Permeability of fluorescent dye” value [3, 6] is reported as 30.63 ± 10.41%. The “Amount of related substances” value [4] was 20.59%.

For `CC(C)C[C@H](NC(=O)CNC(=O)[C@H](CC(C)C)NC(=O)[C@H](CCC(N)=O)NC(=O)CNC(=O)[C@@H]1C[C@@H](O)CN1)C(=O)N[C@@H](C)C(=O)NCC(=O)N1CCC[C@H]1C(=O)N[C@@H](CCC(=O)O)C(=O)O` [YDE-031] (H-[Hyp]GQLGLAGPE-OH), the “Tear Volumes, Day 7” value [2, 7] was 5.63 ± 1.97 mm^3, the “Tear Volumes, Day 14” value [2, 7] was 5.91 ± 0.85 mm^3 and the “Permeability of fluorescent dye” value [3, 8] was 33.35 ± 11.01%. For the same compound, the “Amount of related substances” value [4] was 34.82%.

With `CC(C)C[C@H](NC(=O)CNC(=O)[C@H](C)NC(=O)[C@H](CCC(N)=O)NC(=O)CNC(=O)[C@@H]1C[C@@H](O)CN1)C(=O)N[C@@H](C)C(=O)NCC(=O)N1CCC[C@H]1C(=O)N[C@@H](CCCCN)C(=O)O` [YDE-008] (H-[Hyp]GQAGLAGPK-OH) the “Tear Volumes, Day 7” value [2, 5] was 4.57 ± 1.25 mm^3, the “Tear Volumes, Day 14” value [2, 5] was 6.10 ± 2.36 mm^3 and the “Permeability of fluorescent dye” value [3, 6] was 20.32 ± 11.87%. For the same compound, the “Amount of related substances” value [4] was 4.42%.

In the case of `CC(C)C[C@H](NC(=O)CNC(=O)[C@H](CC(C)C)NC(=O)[C@H](CCC(N)=O)NC(=O)CNC(=O)[C@@H]1C[C@H](O)CN1)C(=O)N[C@@H](C)C(=O)NCC(=O)N1CCC[C@H]1C(=O)N[C@@H](CCCCN)C(=O)O` [YDE-034] (H-[cisHyp]GQLGLAGPK-OH), the “Tear Volumes, Day 7” value [2, 7] is reported as 6.16 ± 1.01 mm^3, the “Tear Volumes, Day 14” value [2, 7] is reported as 6.43 ± 1.86 mm^3 and the “Change in amount of tear secretion” value ([2]; study of YDE-029 to YDE-043) is reported as “did not show any significant changes”. The “Permeability of fluorescent dye” value [3, 8] was 32.17 ± 12.94% and the “Amount of related substances” value [4] was 1.25%.

In the case of `CC(C)C[C@H](NC(=O)CNC(=O)[C@H](CC(C)C)NC(=O)[C@H](CCC(N)=O)NC(=O)CNC(=O)[C@@H]1CCC(=O)N1)C(=O)N[C@@H](C)C(=O)NCC(=O)N1CCC[C@H]1C(=O)N[C@@H](CCCCN)C(=O)O` [YDE-036] ([pGlu]GQLGLAGPK-OH), the “Tear Volumes, Day 7” value [2, 7] is reported as 4.95 ± 1.05 mm^3, the “Tear Volumes, Day 14” value [2, 7] is reported as 5.13 ± 1.03 mm^3 and the “Change in amount of tear secretion” value ([2]; study of YDE-029 to YDE-043) is reported as “did not show any significant changes”. For the same compound, the “Permeability of fluorescent dye” value [3, 8] was 57.87 ± 22.91% and the “Amount of related substances” value [4] was 8.77%.
